# Measurements as given in US8273372B2, “Extracellular matrix composition” (Restoration of Appearance & Function Trust, priority 2006, dated 2012).
# Where two headings read alike, the source gives them in different places.
# Key:
# [1] = tested on: human dermal fibroblast cultures; assay: Toxicity assay, MTS/PMS assay of cell viability; type: cell-based
# Experimental: Culture medium was aspirated from confluent culture and washed with versene. […] Trypsin was neutralised with an equal volume of growth medium, the cell suspension was transferred to a universal tube. The culture flask was washed with PBS and transferred to the universal tube. Centrifugation was performed at 200×g for 7 minutes. Cells were resuspended in 1-2 ml growth medium.
# Cells were seeded (10^5/well) into 24-well plates in 0.5 ml DMEM growth medium/well and incubated at 37° C. in a humidified 5% CO2 incubator, until the cells adhered and spread, typically overnight. A single well blank/plate was retained for a reagent control.
# Culture medium was aspirated from cultures and replaced with: a weighed sample of scaffold (20 mg/well) in fresh serum-free DMEM; serum-free DMEM with a range of dilutions of glutaraldehyde or EDC as cross-linking agents. Cells were incubated at 37° C. in humidified 5% CO2 for 1 hr.
# The medium and scaffold material was removed from cells and replaced with fresh maintenance medium (DMEM with 2% HIFBS) and returned to the incubator for 2 to 22 hours. Direct toxicity measurements were taken at 2, 14 and 20 hours. For exposure to matrices, incubation was for 20 hrs. The same medium was added to an empty control well for a reagent blank.
# Aliquots of MTS & PMS stock solutions were thawed and a working MTS/PMS reagent was prepared (2 ml MTS+100 μl PMS). MTS/PMS reagent was added to all wells (50 μl/well) and returned to the incubator for 2-4 hours, until colour developed in the medium over control cultures without toxic challenge.
# 100 μl aliquots of medium were transferred to a 96 well ELISA plate for spectrophotometric measurement at 495 nm.
# Matrices of 1% fibrin/1% alginate, foamed & lyophilised, were cross-linked with EDC or glutaraldehyde and washed 5 times in glycine or PBS before a second lyophilisation, or not, as indicated. […] pieces of matrix were incubated in wells with confluent fibroblast cultures in serum-free medium for 1 hr to detect leachable toxicity, assessed after 20 hr to check for induction of delayed cell death.
# human dermal fibroblasts [2] = assay: MTS assay, acute cytotoxicity; type: cell-based; conditions: FIGS. 30 and 31
# Experimental: (§1) The MTS assay was used as described hereinbefore with certain modifications.
# (§2) Firstly, two modalities were used, (i) acute cytotoxicity and (ii) effect on proliferation over 3 days.
# (§3) On day −1, human dermal fibroblasts were seeded for (i) at high density (5×10^5/well) and for (ii) at low density (2.5×10^4/well).
# (§4) On day 0, cultures were washed in PBS/g and exposed to the test agent diluted into PBS/g unless otherwise stated, for a test period (1-4 hr). Then the test agent was removed and culture medium replaced. For (i), cells were returned to maintenance medium (2% FBS/DMEM) followed by MTS/PMS reagent for two hours. For (ii), cells were returned to growth medium (10% FBS/DMEC) for three days. After this period, the growth medium was aspirated and replaced with maintenance medium (2% FBS/DMEM) followed by MTS/PMS reagent for two hours.
# (§5) MTS colour change at 2 hours was measured as described hereinbefore.
# (§6) Test agents were GTA and soaked scaffold supernatants (a), fibrinogen and fragment E Schiff base hydrolysate (b) and (c) and alginate (d).
# human dermal fibroblasts [3] = assay: MTS assay, effect on proliferation over 3 days; type: cell-based; conditions: FIGS. 30 and 31
# Experimental: as §1, §2, §3, §4, §5, §6
# neutrophil CD18 = assay: Human neutrophil activation assay (CD18, FACS); type: cell-based; conditions: 1 hour at 37° C., FIGS. 36 and 37, read-out: ED50 neutrophil CD18 activation
# Experimental: Dextran 70 and ACD were warmed to 37° C. in a water bath. 2.5 ml ACD was drawn into a 20 ml syringe. 10-15 ml of blood was drawn from a volunteer into the same syringe and inverted several times to mix. The needle was changed and 6-7 ml of Dextran 70 was drawn. Some air was drawn into the top of the syringe and mixed thoroughly by inverting the syringe several times. The syringe was turned upright, taped to the inside of a 37° C. water bath and left for approximately 1.5 hours to allow for erythrocytes to sediment, leaving a leukocyte-rich plasma upper layer.
# The syringe was carefully removed from the water bath keeping upright and the top of the needle was bent through about 120°. A 15 ml polypropylene tube was placed under the tip of the needle and approximately half of the plasma was slowly removed (containing the leukocytes). The remainder of the plasma was removed into a second tube leaving the red blood cells in the syringe to be discarded. Each of the 15 ml tubes was topped up with PBS/g and inverted to mix.
# The tubes were centrifuged at 1000 rpm for 10 minutes. The supernatant was removed using a 1 ml plastic pipette and the pellet was loosened. If the supernatant appeared cloudy then a check was performed under the microscope for remaining cells and centrifuged again if necessary. When the supernatant was clear it was discarded. […]
# HPMEC = assay: Cell adhesion assay on cross-linked matrix protein coatings (crystal violet); type: cell-based, human; conditions: coating cross-linked with glutaraldehyde or EDC dilution range, 1 hr adhesion; FIG. 5
# Experimental: HPMEC were isolated from human placentae obtained with consent and cultured according to previously published methods (Leach et al. (1994) Placenta 15(4): 355-64; Dye et al. (2001) Microvasc Res 62(2): 94-113; Dye et al. (2004) Faseb J 18(1): 125-7). Established cultures are phenotypically stable for typically up to 25 passages at a split ratio of 1:3. Cultures are maintained in standard growth medium (M199+5% PDPDS+2% HIFBS). Cultures were maintained in a humidified 5% CO2 and 37° C. atmosphere. For biocompatibility assessment of scaffolds, harvested cells were resuspended in high growth medium (M199+5% HIBFS). For cell adhesion assays harvested cells were resuspended in M199+0.5% BSA. […]
# The well was washed with a sufficient number of washes to reduce residual concentration to below cytotoxic limits (5×100 μl per well) with PBS, replaced with 50 μl/well BSA/NaHCO3 (covalent reagent blocking step) and incubated for 1 hr at 37° C. Washing was performed twice with sterile PBS and the plate was stored with 100 μl/well PBS until the cells were ready.
# Accutase was thawed and M199/BSA was prepared. […] The supernatant was aspirated and the cells were resuspended in 1-2 ml M199/BSA as appropriate, titurated, and cell density was counted (1:10 in 4% trypan blue/PBS), aiming for around 2×10^6/ml.
# The number of cells required for the assay was calculated using 1-2×10^4 cells/well. […]
molecule,measurement,setting,value
O=CCCCC=O [glutaraldehyde],LD50 for cells relative to the lowest cross-linking concentration used,[1],5-10 times less
same,toxicity (loss of cell viability),[1],acute concentration-dependent toxicity
same,acute LD50 on HDF cytotoxicity,human dermal fibroblasts [2],50 to 150 µM
same,LD50 for proliferation,human dermal fibroblasts [3],around 7 μM
same,EC50,neutrophil CD18,150 to 500 µM
"CCN=C=NCCCN(C)C.Cl [EDC, 1-(3-Dimethylamino-propyl)-3-ethyl-carbodiimide (EDC) HCl]",LD50 for cells relative to the lowest cross-linking concentration used,[1],"5,000-10,000 times less"
same,toxicity (loss of cell viability),"[1]; 1 hr exposure, measured at 2, 14 and 20 hours, FIGS. 6-7",acute concentration-dependent toxicity
collagen,effect of cross-linking on cell adhesion,HPMEC,biphasic effect
fibrinogen,effect of cross-linking on cell adhesion,HPMEC,continuously increases adhesion
